Assay results: US20020142995A1, “Ammonium salts of hemoglobin allosteric effectors, and uses thereof” (priority 2000, published 2002)
Where “and” joins values, the source holds several entries; their conditions need not be identical. Equal values may be shown once. Read-outs that look alike come from different tables or passages of the source.

Columns and labels:
goldfish free hemoglobin = target: T1, goldfish free hemoglobin (Carassius auratus, UniProt P02018+P02140); assay: Oxygen dissociation curves of goldfish free hemoglobin with allosteric effectors; type: biochemical; set-up: unit not given beside the values
T1 construct: human and goldfish free hemoglobin controls; from tissue; host or cells: goldfish blood (erythrocyte hemoglobin freed from cells); inferred from 'free hemoglobin' beside 'whole blood'
T1 sequence (P02140 1-147): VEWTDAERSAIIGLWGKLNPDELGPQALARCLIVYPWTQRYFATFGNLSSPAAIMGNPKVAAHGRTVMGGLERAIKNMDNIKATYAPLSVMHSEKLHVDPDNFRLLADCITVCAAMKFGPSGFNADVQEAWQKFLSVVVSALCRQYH
T1 sequence (P02018 1-142): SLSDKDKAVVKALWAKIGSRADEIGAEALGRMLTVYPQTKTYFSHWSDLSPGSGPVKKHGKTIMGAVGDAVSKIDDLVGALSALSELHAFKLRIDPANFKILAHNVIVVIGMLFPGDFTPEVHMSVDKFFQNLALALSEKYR
Procedure: FIG. 3 tabulates the P50 values of human and goldfish whole blood controls, human and goldfish free hemoglobin controls, and goldfish free hemoglobin that has been pre-incubated with various allosteric effectors and an ammonium salt of one of them.
FIG. 5 depicts oxygen dissociation curves of human free hemoglobin (pH 7.1; […]), goldfish free hemoglobin (pH 7.1; P50=8.5), and goldfish free hemoglobin+0.25 μmol IHP (pH 7.1; P50=15.0).
FIG. 6 depicts oxygen dissociation curves of goldfish free hemoglobin+0.5 μmol PCHA-DPG (pH 7.1; P50=10.3), goldfish free hemoglobin+0.5 μmol ATP (pH 7.08; P50=21.0), and goldfish free hemoglobin+0.5 μmol GTP (pH 7.11; P50=23.0).

[1] = Visual appearance of effector solution; type: physicochemical
Procedure: Preparation of Effector Stock: Effector stock was prepared at 100-120 mM (Molal solution) using water or Bis-Tris Buffer.

human RBCs = details: IHP encapsulated in human RBCs by electroporation; cited from earlier work
Red Blood Cells = assay: Aggregation of red blood cells after incubation with effector; type: cell-based; details: whole blood incubated with effector
Procedure: Incubation: Whole blood (75-300 μL) was incubated with 200 μL of effector at 37° C. for 5-10 min. (see Summary of Results below).
Washes: After incubation of whole blood with/without effector, blood cells were washed four times with Saline buffer or HBS (BSA) by centrifugal pelleting to remove exogenous effector and to evaluate hemolysis. After final centrifugation, pellet was not resuspended.

stripped hemoglobin = stripped hemoglobin (Homo sapiens, UniProt P68871); details: cited from earlier work
Sequence of stripped hemoglobin (P69905 2-142 partner limits assumed): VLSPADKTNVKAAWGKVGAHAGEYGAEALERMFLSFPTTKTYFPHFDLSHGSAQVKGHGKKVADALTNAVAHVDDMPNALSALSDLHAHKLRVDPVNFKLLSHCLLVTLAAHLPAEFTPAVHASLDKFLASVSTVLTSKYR
Sequence of stripped hemoglobin (P68871 2-147 limits assumed): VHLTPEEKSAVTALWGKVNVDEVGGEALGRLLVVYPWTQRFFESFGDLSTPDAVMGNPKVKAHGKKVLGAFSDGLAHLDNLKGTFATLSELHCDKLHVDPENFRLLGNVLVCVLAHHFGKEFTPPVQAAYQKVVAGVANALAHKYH

whole blood = assay: Blood oxygen dissociation (Hemox Analyzer) of whole blood pre-incubated with effector; type: cell-based; set-up: Observed P50: unit not given here; details: for change of the P50 of treated Red Blood Cells vs. control: observation, whole blood incubated with effector; for P50 of treated-washed RBC pellet vs. control: after resuspended in HBS
Procedure: Whole blood was collected from one subject. The blood was stored in a Vacutainer with Solution A (ACD) and stored at 4-8° C.
Effector characteristics prior to incubation were:
(see Summary of Results below).
Washes: After incubation of whole blood with/without effector, blood cells were washed four times with Saline buffer or HBS (BSA) by centrifugal pelleting to remove exogenous effector and to evaluate hemolysis. […]
Blood Oxygen Dissociation Reading: Blood Oxygen Dissociation of samples were determined using a Hemox Analizer Model B (TCS Medical Products Company, New Hope, Pa.) The sample chamber contained:
10-20 μL Pelleted Blood Cells incubated with Effector.
All readings were made at 36.7-37.2° C. and at pH 7.28-7.32. The P50S were calculated from the Dissociation Curves (see FIGS. 16-23) compared to same day control P50.

[2] = target: allosteric site on hemoglobin (Homo sapiens, UniProt P68871); details: displaces hemoglobin-bound 2,3-DPG; cited from earlier work
Sequence of allosteric site on hemoglobin (P69905 2-142 partner limits assumed): as the sequence (P69905 2-142 partner limits assumed) above
Sequence of allosteric site on hemoglobin (P68871 2-147 limits assumed): as the sequence (P68871 2-147 limits assumed) above

[3] = goldfish free hemoglobin + 0.5 μmol effector, pH 7.08-7.11
[4] = 75 μL whole blood incubated (2-5 min) with 200 μL 30 mM effector, washed 4×, 15 μL RBC measured at 37° C.

Row | Compound | P50 (goldfish free hemoglobin; [3]) | appearance of the solution [1] | aggregation of Red Blood Cells (Red Blood Cells) | change of the P50 of treated Red Blood Cells vs. control (whole blood) | Observed P50 (whole blood; [4]) | also measured
1 | Nc1ncnc2c1ncn2[C@@H]1O[C@H](COP(=O)(O)OP(=O)(O)OP(=O)(O)O)[C@@H](O)[C@H]1O [ATP, adenosine triphosphate] | 21.0 |  |  |  |  | 
2 | Nc1nc2c(ncn2[C@@H]2O[C@H](COP(=O)(O)OP(=O)(O)OP(=O)(O)O)[C@@H](O)[C@H]2O)c(=O)[nH]1 [GTP] | 23.0 |  |  |  |  | 
3 | O=P(O)(O)O[C@H]1[C@H](OP(=O)(O)O)[C@@H](OP(=O)(O)O)[C@H](OP(=O)(O)O)[C@@H](OP(=O)(O)O)[C@H]1OP(=O)(O)O [IHP, myo-inositol hexakis (dehydrogen Phosphate)] |  | visually clear | no aggregation | No change |  | P50 of modified RBCs (human RBCs): approximately 50 torr; half-saturation pressure P(O2) (½) (stripped hemoglobin; pH 7.4, 25 C.): 48.4 mm Hg; half-saturation pressure P(O2) (½) (stripped hemoglobin; pH 7.4, 37 C.): 96.4 mm Hg; P50 (goldfish free hemoglobin; goldfish free hemoglobin + 0.25 μmol effector, pH 7.1): 15.0; Observed P50 (whole blood; 75 μL whole blood + 200 μL 30 mM effector, 2-5 min, 37° C., Hypotonic, Osm: 185 mOsM): 37.5; affinity for the allosteric site relative to 2,3-DPG [2]: one-thousand times greater affinity
4 | NC1CCCCC1.NC1CCCCC1.NC1CCCCC1.NC1CCCCC1.NC1CCCCC1.O=C(O)[C@@H](COP(=O)(O)O)OP(=O)(O)O [PCHA-DPG, 2,3 Diphospho-D-Glyceric Acid (Pentacyclohexyclammonium salt)] | 10.3 | visually clear | no aggregation | Increases the P50 | 50.5 and 47.3 and 36.0 | P50 of treated-washed RBC pellet vs. control (whole blood): maintain higher P50 than the control
5 | Cyclohexylammonium-Inositol Hexaphosphate [CHA-IHP] |  | visually clear | no aggregation | Increases the P50 | 42.0 and 58.2 and 32.8 | Observed P50 (whole blood; 75 μL whole blood + 200 μL 30 mM effector, washed 4×, cell pellet stored for 48 hrs at 4-8° C., measured at 37° C.): 50.5; P50 of treated-washed RBC pellet vs. control (whole blood): maintain higher P50 than the control; P50 EFF:WB (whole blood; same sample as FIG. 12C, evaluated 48 h later (stored at 4-8 C.), 25 mM, 171 mOsM): 50.5 mmHg
6 | NC1CCCCC1 [CHA, Cyclohexylamine] |  | visually clear | no aggregation | No change | 28.5 and 26.8 | 
7 | O=C([O-])[C@@H](COP(=O)([O-])[O-])OP(=O)([O-])[O-].[Na+].[Na+].[Na+].[Na+].[Na+] [PNa-DPG, 2,3 Diphospho-D-Glyceric Acid (Pentasodium salt)] |  | visually clear | no aggregation | No change | 38.2 | Observed P50 (whole blood; 75 μL whole blood + 200 μL 30 mM effector, 2-5 min, 37° C., Hypotonic, Osm: 163 mOsM): 37.5; Observed P50 (whole blood; 75 μL whole blood + 200 μL 30 mM effector, 2-5 min, 37° C., Isotonic, Osm: 321 mOsM): 39.6
8 | O=C(O)C(COP(=O)(O)O)OP(=O)(O)O (stereo not drawn) [2,3-Diphosphoglycerate] |  |  |  |  |  | half-saturation pressure P(O2) (½) (stripped hemoglobin; pH 7.4, 25 C.): 12.0 mm Hg; half-saturation pressure P(O2) (½) (stripped hemoglobin; pH 7.4, 37 C.): 23.7 mm Hg
